Reference: patent US6528514B1, “IgE antibody production inhibitors and autoimmune diseases inhibitors” (Welfide Corporation, priority 1998, dated 2003)

Columns and labels:
[1] = system: IgE antibody; assay: Determination of serum IgE antibody titer in HgCl2-administered BN rats (ELISA); format: in vivo, rat; details: for inhibition at 30 mg/kg/day: Rattus norvegicus, po, read-out: Inhibition rate; for Serum IgE antibody titer / inhibition of IgE antibody titer increased by HgCl2 (in words): male BN rats; for Serum IgE antibody titer: HgCl2 1 mg/mL/kg s.c., compound 30 mg/kg/day orally for 6 days, serum on day 7, *p < 0.05
Description: HgCl2, 1 mg/mL/kg, was administered to male BN rats (8 animals per group) subcutaneously at the back (HgCl2 group). Separately, to male BN rats (8 animals per group) similarly administered with HgCl2, Compounds 1˜4 were administered orally in a daily dose of 30 mg/kg for 6 consecutive days beginning the HgCl2 administration day (Compound 1 administration group, Compound 2 administration group, Compound 3 administration group, and Compound 4 administration group, respectively). Here, Compound 3 is 2-[5-amino-2-(3-methoxyphenyl)-6-oxo-1,6-dihydro-1-pyrimidinyl]-N-[1-[(benzoxazol-2-yl)carbonyl]-2-phenylethyl]acetamide and Compound 4 is 2-[5-amino-2-(3-methoxyphenyl)-6-oxo-1,6-dihydro-1-pyrimidin-yl]-N-[1-[[5-(methoxycarbonyl)benzoxazol-2-yl]carbonyl]-2-phenylethyl]acetamide. On day 7 following HgCl2 administration, the animals were sacrificed with CO2 gas, thoracotomized, and the cardiac blood was collected and centrifuged to recover the serum. The serum samples were stored at −20° C. and the IgE antibody titer was determined by the following procedure.
Anti-rat IgE monoclonal antibody [MCARE-01] [manufactured by Biochemical Industry Co., 01404] was diluted to 5 μg/mL with 0.02% NaN3/PBS and an ELISA plate was coated with 50 μL of the solution at 4° C. overnight. After each well was washed, blocking was performed with 3% skim milk/TBS at room temperature for at least 1 hour. After another washing, 50 μL of the test sample diluted 200-fold with 1% BSA/TBS was added to each well, followed by 2 hours of incubation at room temperature. Each well was washed and 50 μL of ALP-labeled anti-rat κ & λ-chain monoclonal antibody (Sigma, lot 113H4804) diluted 5000-fold with 1% BSA/TBS was added. The plate was incubated at room temperature for 2 hours. Each well was washed again, and 50 μL/well of p-nitrophenyl phosphate (in 0.1 M diethanolamine, 1 mg/mL, pH 9.8) was added as the substrate solution. After color development, the reaction was stopped with an equal amount of 0.5 M NaOH and the OD was measured at the wavelength of 405 nm. As the standard rat IgE, Chemicon's rat IgE was used.

[2] = target: T1, human heart chymase (Homo sapiens, UniProt P23946); assay: human heart chymase inhibitory activity test (amidase inhibitory activity); format: biochemical; details: 5 nM chymase; substrate succinyl-alanyl-alanyl-prolyl-phenylalanine-p-nitroanilide; pH 7.5
T1 sequence (P23946 22-247): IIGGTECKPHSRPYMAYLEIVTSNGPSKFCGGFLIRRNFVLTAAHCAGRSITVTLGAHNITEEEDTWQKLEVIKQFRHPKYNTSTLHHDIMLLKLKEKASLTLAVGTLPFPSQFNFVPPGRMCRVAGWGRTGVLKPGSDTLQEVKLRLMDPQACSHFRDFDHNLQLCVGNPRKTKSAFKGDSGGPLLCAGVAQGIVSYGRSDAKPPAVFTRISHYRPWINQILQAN
Description: The human heart chymase-inhibitory activity of the obtained Compound 1 was assayed in terms of amidase inhibitory activity of human heart chymase and the efficacy of the compound was evaluated as follows.
The inhibitory activity was determined from the change in residual activity fraction of 5 nM chymase using a concentration series (<×1,<×10,<×100 equivalents) of Compound 1 in the presence of the synthetic substrate succinyl-alanyl-alanyl-prolyl-phenylalanine-p-nitroanilide at a final concentration of 2.5 mmol. Analysis of inhibitory potency was made by the least square regression of the Easson-Stedman plot utilizing bimolecular equilibrium reaction linearization (Proc. Roy. Soc. B., 121, 141, 1936). The apparent inhibition constant (Kiapp) obtained by this analysis and the inhibition constant (Ki) calculated from the final concentration of the substrate in the reaction mixture and the Km value measured separately were used to evaluate the inhibitory activity. For determination of the initial velocity of the enzymatic reaction, the amount of p-nitroaniline produced by hydrolysis of the substrate was spectrometrically estimated from the increase in the absorbance at 405 nm after subtraction of the absorbance at 650 nm. […]
From the absorbance reading immediately after addition of the enzyme, the increase in absorbance was recorded at exactly equal time-intervals as a progressive curve.

[3] = system: male BN rats; assay: Arthritis assay in HgCl2-administered BN rats (hindpaw volume, severity score); format: in vivo, rat; details: HgCl2 s.c. every other day day 1 to day 10, Compound 1 orally every day
Description: HgCl2, 1 mg/mL/kg, was administered to male BN rats (8 animals per group) subcutaneously at the back every other day from day 1 to day 10, for a total of 5 times (HgCl2 administration group). Separately, in parallel with the administration of HgCl2, Compound 1 was administered orally in a daily dose of […] every day (Compound 1 administration group). In the normal group, PBS in lieu of HgCl2 was administered. On day 1, day 12, day 14, day 16 and day 18, the right and left hindpaw volumes were measured and the severity of arthritis was scored.
With regard to right and left hindpaw volumes, the left hindpaw and right hindpaw of each rat were respectively immersed in water and the increase in volume of the water was measured to calculate the rate of increase (%).
“LEFT” represents the left hindpaw volume and “RIGHT” represents the right hindpaw volume. The ordinate represents the rate of volume increase (%). The abscissa represents the number of days from the first day of testing to the measurement day. […]
The arthritis severity was scored for each limb according to the following criteria and the total of scores for the four limbs (maximum score=16) and the average of the scores for 8 animals per group were calculated. […]

[4] = system: anti-ssDNA antibody; assay: Assay of anti-ssDNA antibody in serum of HgCl2-administered BN rats; format: in vivo, rat; details: male BN rats, Compound 1 30 mg/kg orally every day, serum day 12, 14, 16
Description: (§1) HgCl2, 1 mg/mL/kg, was administered to male BN rats (8 animals per group) subcutaneously at the back every other day from day 1 to day 10, for a total of 5 times (HgCl2 administration group). Separately, in parallel with the administration of HgCl2 in the same manner as above, Compound 1 was administered orally in a daily dose of 30 mg/kg every day (Compound 1 administration group). In the normal group, PBS was administered. On day 12, day 14 and day 16, the blood was drawn from the tail vein and centrifuged to separate the serum. (2-1) Assay of anti-ssDNA antibody
A 96-well plate was coated with 50 μL/well of ε-poly-L-lysine having a molecular weight of 2000˜4000 (Wako Pure Chemical Industries, ECN 6644, 25 μg/mL in PBS) at room temperature for 3 hours. […]
After washing, 50 μL of the test sample diluted 50-fold with 1% BSA/PBS was added to each well, and the plate was incubated at room temperature for 2 hours. […] Amount of bound antibody was measured as the change of absorbance at 490 nm to 650 nm with the combination of peroxidase-labeled anti-rat IgE(Fc) monoclonal antibody and o-phenylendiamine (1mg/mL) and H2O2 (as the control, the OD on day 1 was used). The amount of anti-ssDNA antibody was calculated as the difference (ΔOD) from that of the background.
The ordinate represents the difference in absorbance (ΔOD) . […]

[5] = system: anti-type II collagen antibody; assay: Assay of anti-type II collagen antibody in serum of HgCl2-administered BN rats; format: in vivo, rat; details: male BN rats, Compound 1 30 mg/kg orally every day, serum day 12, 14, 16
Description: as §1
Type II collagen (Collagen Technology Forum, 64-50823) was diluted to 50 μg/mL with 0.02% NaN3/PBS and an ELISA plate was coated with 50 μL/well at 4° C. overnight. After washing, 50 μL of the test sample diluted 50-fold with 1% BSA/PBS was added to the each well and the plate was incubated at room temperature for 2 hours. As the background, wells not supplied with the test sample were provided. Amount of bound antibody was measured as the change of absorbance at 490 nm to 650 nm with the combination of peroxidase-labeled anti-rat IgE(Fc) monoclonal antibody and o-phenylendiamine (1 mg/mL) and H2O2 (as the control, the OD on day 1 was used). The amount of anti-type II collagen antibody was calculated as the difference (ΔOD) from that of the background.
The ordinate represents the difference in absorbance (ΔOD). […]

[6] = inhibition of serum IgE antibody titer vs HgCl2 group, 30 mg/kg/day orally for 6 days, day 7

Structure (SMILES) | inhibition at 30 mg/kg/day [1, 6] [%] | Serum IgE antibody titer [1] | inhibition of IgE antibody titer increased by HgCl2 (in words) ([1]; 30 mg/kg/day orally for 6 days) | Inhibition rate [1, 6] [%] | Ki [2] [nM] | rate of increase in left and right hindpaw volumes (FIG. 1) ([3]; measured up to day 18) | arthritis severity score (FIG. 2) ([3]; total of four limbs, maximum 16) | amount of anti-ssDNA antibody (ΔOD, FIG. 3) [4] | anti-type II collagen antibody titer (ΔOD, FIG. 4) [5]
COc1cccc(-c2ncc(N)c(=O)n2CC(=O)NC(Cc2ccccc2)C(=O)c2nc3ccccc3o2)c1 (centres unmarked) [Compound 3, 2-[5-amino-2-(3-methoxyphenyl)-6-oxo-1,6-dihydro-1-pyrimidinyl]-N-[1-[(benzoxazol-2-yl)carbonyl]-2-phenylethyl]acetamide] | 24.3 | 65.25 ± 6.71* | significantly inhibited |  |  |  |  |  | 
Nc1cnc(-c2cccc(Cl)c2)n(CC(=O)NC(Cc2ccccc2)C(=O)C(F)(F)C(=O)NCc2ccccc2)c1=O (centres unmarked) [Compound 2, 2-[5-amino-2-(3-chlorophenyl)-1 6-dihydro-6-oxo-1-pyrimidinyl]-N-[1-benzyl-3-[N-(benzyl)carbamoyl]-3,3-difluoro-2-oxopropyl]acetamide] |  | 67 ± 7.57 µg/mL | tendency to inhibit | 22.3 |  |  |  |  | 
COC(=O)c1ccc2oc(C(=O)C(Cc3ccccc3)NC(=O)Cn3c(-c4cccc(OC)c4)ncc(N)c3=O)nc2c1 (centres unmarked) [Compound 4, 2-[5-amino-2-(3-methoxyphenyl)-6-oxo-1,6-dihydro-1-pyrimidin-yl]-N-[1-[[5-(methoxycarbonyl)benzoxazol-2-yl]carbonyl]-2-phenylethyl]acetamide] | 23.4 | 66.10 ± 8.46* | significantly inhibited |  |  |  |  |  | 
COC(=O)c1ccc2oc(C(=O)C(Cc3ccccc3)NC(=O)Cn3c(-c4ccc(F)cc4)ncc(N)c3=O)nc2c1 (centres unmarked) [Compound 1, 2-[5-amino-2-(4-fluorophenyl)-6-oxo-1,6-dihydro-1-pyrimidinyl]-N-[1-[[5-(methoxycarbonyl)benzoxazol-2-yl]carbonyl]-2-phenylethyl]acetamide] | 27.8 | 62.24 ± 5.08* | significantly inhibited |  | 23 | significantly suppressed | significantly reduced | significantly reduced | reduced
